Assay results: BindingDB's records for doi:10.1016/j.bioorg.2017.03.006 (CSIR-Indian Institute of Chemical Biology, 2017)

Biological target: Alpha-glucosidase MAL32 (Saccharomyces cerevisiae (strain ATCC 204508 / S288c), UniProt P38158)
Assay: α-Glucosidase Inhibition Assay
Settings: pH 6.8; 37 °C
Procedure: Briefly, the sample solution (25 μL, 1.0 mM solution in DMSO) was mixed with enzyme solution (25 μL, 0.5 U/mL prepared in 0.1 M phosphate buffer, pH 6.8). […] After the incubation, the substrate p-nitrophenyl α-D-glucopyranoside (25 μL, 0.5 mM, 0.1 Mphosphate buffer, pH 6.8) was added to the mixture and allowed to incubate at 37 ± 1 °C for 30 min. The reaction was then terminated by the addition of aqueous solution of sodium carbonate (100 μL, 0.2 M). […] The uninhibited enzyme solution was taken as blank and an appropriate DMSO control was used. […] The concentration of DMSO in the final solution was maintained below 5.0% so that the enzyme activity was not destroyed.

Alpha-glucosidase MAL32, sequence (P38158 whole entry): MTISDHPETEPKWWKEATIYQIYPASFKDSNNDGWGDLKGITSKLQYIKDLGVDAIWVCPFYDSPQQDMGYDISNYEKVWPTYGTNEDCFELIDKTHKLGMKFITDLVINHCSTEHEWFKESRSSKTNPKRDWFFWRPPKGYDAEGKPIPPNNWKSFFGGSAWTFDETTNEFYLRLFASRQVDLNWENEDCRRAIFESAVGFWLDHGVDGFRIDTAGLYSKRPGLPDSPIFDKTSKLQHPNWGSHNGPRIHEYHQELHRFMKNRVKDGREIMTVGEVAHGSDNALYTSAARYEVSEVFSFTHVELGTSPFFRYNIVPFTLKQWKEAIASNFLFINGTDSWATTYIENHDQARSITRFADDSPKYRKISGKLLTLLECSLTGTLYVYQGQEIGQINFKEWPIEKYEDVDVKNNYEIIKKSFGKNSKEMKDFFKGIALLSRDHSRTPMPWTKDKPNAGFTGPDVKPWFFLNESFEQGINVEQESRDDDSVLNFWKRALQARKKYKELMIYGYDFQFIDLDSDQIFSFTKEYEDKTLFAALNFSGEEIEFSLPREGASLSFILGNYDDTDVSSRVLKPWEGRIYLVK

IC50: 148 µM
SMILES: O=C(CCc1cn(-c2ccc(O)cc2)nn1)N[C@@H]1OC(CO)[C@@H](O)C(O)C1O (stereo partly drawn) [3-[1-(4-Hydroxyphenyl)-1H-[1,2,3]triazol-4-yl]-N-(2,3,4,6-tetra-O-acetyl-β-D-glucopyranosyl)propanamide (4f)]
